Experimental data: the supplement of paper PMC10307832

Key:
Assay in all cases: relative viability (nuclei count vs DMSO), 5 days (fraction); higher = more cells survive
201T = test system: 201T
How it was run: (§1)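 Relative viability equals treated-well nuclei counts divided by vehicle-well nuclei counts. Counts came from 4× images of lung cancer cell lines grown in 1536-well plates for 5 days after pin-tool dosing on the day after seeding. Dosing used one drug alone or a fixed anchor-drug dose plus five library-drug doses (not always all listed) in √10 steps, and values are medians of duplicate plates.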

BEN = test system: BEN
How it was run: as §1

COR-L 105 = test system: COR-L 105
How it was run: as §1

EMC-BAC-2 = test system: EMC-BAC-2
How it was run: as §1

H3255 = test system: H3255
How it was run: as §1

HARA = test system: HARA
How it was run: as §1

HCC-78 = test system: HCC-78
How it was run: as §1

HOP-62 = test system: HOP-62
How it was run: as §1

LC-2-ad = test system: LC-2-ad
How it was run: as §1

LOU-NH91 = test system: LOU-NH91
How it was run: as §1

LU99A = test system: LU99A
How it was run: as §1

LXF-289 = test system: LXF-289
How it was run: as §1

NCI-H1395 = test system: NCI-H1395
How it was run: as §1

NCI-H1993 = test system: NCI-H1993
How it was run: as §1

NCI-H2087 = test system: NCI-H2087
How it was run: as §1

NCI-H2126 = test system: NCI-H2126
How it was run: as §1

NCI-H2170 = test system: NCI-H2170
How it was run: as §1

NCI-H650 = test system: NCI-H650
How it was run: as §1

RERF-LC-KJ = test system: RERF-LC-KJ
How it was run: as §1

SK-MES-1 = test system: SK-MES-1
How it was run: as §1

SW 900 = test system: SW 900
How it was run: as §1

UMC-11 = test system: UMC-11
How it was run: as §1

## Cc1cn(-c2cc(NC(=O)c3ccc(C)c(Nc4nccc(-c5cccnc5)n4)c3)cc(C(F)(F)F)c2)cn1 [Nilotinib] + O=C(c1cc(Cc2n[nH]c(=O)c3ccccc23)ccc1F)N1CCN(C(=O)C2CC2)CC1 [Olaparib] (partner 8 µM)
201T; first compound 0.001 µM
  relative viability: 0.843
201T; first compound 0.003162 µM
  relative viability: 0.876
201T; first compound 0.01 µM
  relative viability: 0.959
201T; first compound 0.03162 µM
  relative viability: 0.935
201T; first compound 0.1 µM
  relative viability: 0.869
BEN; first compound 0.001 µM
  relative viability: 1.11
BEN; first compound 0.003162 µM
  relative viability: 1.1
BEN; first compound 0.01 µM
  relative viability: 1.25
BEN; first compound 0.03162 µM
  relative viability: 0.996
BEN; first compound 0.1 µM
  relative viability: 1
COR-L 105; first compound 0.001 µM
  relative viability: 0.629
COR-L 105; first compound 0.003162 µM
  relative viability: 0.688
COR-L 105; first compound 0.01 µM
  relative viability: 0.645
COR-L 105; first compound 0.03162 µM
  relative viability: 0.636
COR-L 105; first compound 0.1 µM
  relative viability: 1.09
EMC-BAC-2; first compound 0.001 µM
  relative viability: 0.43
EMC-BAC-2; first compound 0.003162 µM
  relative viability: 0.448
EMC-BAC-2; first compound 0.01 µM
  relative viability: 0.49
EMC-BAC-2; first compound 0.03162 µM
  relative viability: 0.497
EMC-BAC-2; first compound 0.1 µM
  relative viability: 0.521
H3255; first compound 0.001 µM
  relative viability: 0.533
H3255; first compound 0.003162 µM
  relative viability: 0.561
H3255; first compound 0.01 µM
  relative viability: 0.572
H3255; first compound 0.03162 µM
  relative viability: 0.474
H3255; first compound 0.1 µM
  relative viability: 0.501
HARA; first compound 0.001 µM
  relative viability: 0.639
HARA; first compound 0.003162 µM
  relative viability: 0.867
HARA; first compound 0.01 µM
  relative viability: 0.676
HARA; first compound 0.03162 µM
  relative viability: 0.535
HARA; first compound 0.1 µM
  relative viability: 0.747
HCC-78; first compound 0.001 µM
  relative viability: 0.748
HCC-78; first compound 0.003162 µM
  relative viability: 0.602
HCC-78; first compound 0.01 µM
  relative viability: 0.877
HCC-78; first compound 0.03162 µM
  relative viability: 0.768
HCC-78; first compound 0.1 µM
  relative viability: 0.752
HOP-62; first compound 0.003162 µM
  relative viability: 0.38
HOP-62; first compound 0.01 µM
  relative viability: 0.393
HOP-62; first compound 0.03162 µM
  relative viability: 0.403
HOP-62; first compound 0.1 µM
  relative viability: 0.352
LC-2-ad; first compound 0.001 µM
  relative viability: 0.686
LC-2-ad; first compound 0.003162 µM
  relative viability: 0.755
LC-2-ad; first compound 0.01 µM
  relative viability: 0.689
LC-2-ad; first compound 0.03162 µM
  relative viability: 0.874
LC-2-ad; first compound 0.1 µM
  relative viability: 0.594
LOU-NH91; first compound 0.001 µM
  relative viability: 0.877
LOU-NH91; first compound 0.003162 µM
  relative viability: 1.05
LOU-NH91; first compound 0.01 µM
  relative viability: 1.09
LOU-NH91; first compound 0.03162 µM
  relative viability: 0.94
LOU-NH91; first compound 0.1 µM
  relative viability: 0.997
LU99A; first compound 0.001 µM
  relative viability: 0.2
LU99A; first compound 0.003162 µM
  relative viability: 0.201
LU99A; first compound 0.03162 µM
  relative viability: 0.221
LU99A; first compound 0.1 µM
  relative viability: 0.164
LXF-289; first compound 0.001 µM
  relative viability: 1.07
LXF-289; first compound 0.003162 µM
  relative viability: 1.37
LXF-289; first compound 0.01 µM
  relative viability: 1.26
LXF-289; first compound 0.03162 µM
  relative viability: 1
LXF-289; first compound 0.1 µM
  relative viability: 1.06
NCI-H1395; first compound 0.001 µM
  relative viability: 0.472
NCI-H1395; first compound 0.01 µM
  relative viability: 0.473
NCI-H1395; first compound 0.03162 µM
  relative viability: 0.493
NCI-H1395; first compound 0.1 µM
  relative viability: 0.455
NCI-H1993; first compound 0.001 µM
  relative viability: 0.957
NCI-H1993; first compound 0.003162 µM
  relative viability: 1.1
NCI-H1993; first compound 0.01 µM
  relative viability: 1.75
NCI-H1993; first compound 0.03162 µM
  relative viability: 1.01
NCI-H1993; first compound 0.1 µM
  relative viability: 1.23
NCI-H2087; first compound 0.001 µM
  relative viability: 0.529
NCI-H2087; first compound 0.003162 µM
  relative viability: 0.672
NCI-H2087; first compound 0.01 µM
  relative viability: 0.592
NCI-H2087; first compound 0.03162 µM
  relative viability: 0.552
NCI-H2087; first compound 0.1 µM
  relative viability: 0.514
NCI-H2126; first compound 0.001 µM
  relative viability: 0.902
NCI-H2126; first compound 0.003162 µM
  relative viability: 1.03
NCI-H2126; first compound 0.01 µM
  relative viability: 1.11
NCI-H2126; first compound 0.03162 µM
  relative viability: 0.876
NCI-H2126; first compound 0.1 µM
  relative viability: 0.83
NCI-H2170; first compound 0.001 µM
  relative viability: 0.597
NCI-H2170; first compound 0.003162 µM
  relative viability: 0.662
NCI-H2170; first compound 0.01 µM
  relative viability: 0.647
NCI-H2170; first compound 0.03162 µM
  relative viability: 0.574
NCI-H2170; first compound 0.1 µM
  relative viability: 0.614
NCI-H650; first compound 0.001 µM
  relative viability: 0.357
NCI-H650; first compound 0.003162 µM
  relative viability: 0.432
NCI-H650; first compound 0.01 µM
  relative viability: 0.454
NCI-H650; first compound 0.03162 µM
  relative viability: 0.36
NCI-H650; first compound 0.1 µM
  relative viability: 0.344
RERF-LC-KJ; first compound 0.001 µM
  relative viability: 0.816
RERF-LC-KJ; first compound 0.003162 µM
  relative viability: 1.03
RERF-LC-KJ; first compound 0.01 µM
  relative viability: 0.976
RERF-LC-KJ; first compound 0.03162 µM
  relative viability: 0.826
RERF-LC-KJ; first compound 0.1 µM
  relative viability: 0.892
SK-MES-1; first compound 0.001 µM
  relative viability: 0.611
SK-MES-1; first compound 0.003162 µM
  relative viability: 0.696
SK-MES-1; first compound 0.01 µM
  relative viability: 0.778
SK-MES-1; first compound 0.03162 µM
  relative viability: 0.573
SK-MES-1; first compound 0.1 µM
  relative viability: 0.432
SW 900; first compound 0.003162 µM
  relative viability: 0.916
SW 900; first compound 0.01 µM
  relative viability: 0.965
SW 900; first compound 0.03162 µM
  relative viability: 0.77
SW 900; first compound 0.1 µM
  relative viability: 0.776
UMC-11; first compound 0.001 µM
  relative viability: 0.39
UMC-11; first compound 0.003162 µM
  relative viability: 0.384
UMC-11; first compound 0.01 µM
  relative viability: 0.337
UMC-11; first compound 0.03162 µM
  relative viability: 0.341
UMC-11; first compound 0.1 µM
  relative viability: 0.279
